Results published in US9765018B2, “IDO inhibitors” (BRISTOL-MYERS SQUIBB COMPANY, priority 2013, dated 2017).

How the values were obtained:
IDO [1] = molecular target: T1, IDO (Homo sapiens (Human), UniProt P14902); assay: Kynurenine assay in IFN-γ-stimulated Hela cells; assay type: cell-based; conditions: 20 h, read-out: Hela Kyurenine (IC50)
Procedure, shortened: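 Kynurenine in supernatant is read at 490 nm after Ehrlich reagent (10 min RT), following TCA stop and 30 min at 50° C hydrolysis. Before that, Hela cells in phenol red-free RPMI/10% FBS were co-treated 20 h at 37° C with 100 ng/mL IFN-γ and compound (30 μM top, 3-fold series to 1.5 nM).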

IDO [2] = molecular target: T1, IDO; assay: LLE_IDO_ABS_DR (IDO assay, method not described)

T1 sequence (P14902 whole entry): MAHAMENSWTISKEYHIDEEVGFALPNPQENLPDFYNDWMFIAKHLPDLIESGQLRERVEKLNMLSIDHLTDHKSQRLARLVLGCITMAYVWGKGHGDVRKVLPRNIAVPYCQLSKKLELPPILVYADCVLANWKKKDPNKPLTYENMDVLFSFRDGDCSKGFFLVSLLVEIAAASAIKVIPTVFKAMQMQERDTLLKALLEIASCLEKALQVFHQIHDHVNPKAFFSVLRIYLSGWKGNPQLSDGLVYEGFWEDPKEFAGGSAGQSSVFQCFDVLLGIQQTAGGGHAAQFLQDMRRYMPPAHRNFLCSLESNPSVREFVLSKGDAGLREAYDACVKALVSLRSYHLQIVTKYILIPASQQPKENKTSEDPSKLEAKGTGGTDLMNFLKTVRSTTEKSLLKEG

| IC50 (IDO [1]) [nM] | IC50 (IDO [2]) [nM] | Structure (SMILES) |
| --- | --- | --- |
| 250 | 1160 | COc1ccc(-c2ccc(Oc3ccccc3C(C)(C)C)c(NC(=O)Nc3ccccc3C)c2)c(-c2nnn[nH]2)c1 [Example 193, 1-(4-(2-tert-butylphenoxy)-4′-methoxy-2′-(1H-tetrazol-5-yl)biphenyl-3-yl)-3-o-tolylurea] |
| 850 | 3350 | O=C(Nc1ccc(Cl)cc1)Nc1cc(-c2ccc(C(=O)O)c(Cl)c2)ccc1Oc1ccccc1C(F)(F)F [Example 206, 3-chloro-3′-(3-(4-chlorophenyl)ureido)-4′-(2-(trifluoromethyl)phenoxy)biphenyl-4-carboxylic acid] |
| 520 | 810 | O=C(Nc1ccc(Cl)cc1)Nc1cc(-c2ccccc2-c2nnn[nH]2)cc(CC2CC2)c1OC1CCOCC1 [Example 331] |
| 300 | 1830 | CC(C)(C)c1ccccc1Oc1ccc(-c2ccc(C(=O)O)c(Cl)c2)cc1NC(=O)Nc1ccccc1Cl [Example 215, 4′-(2-tert-butylphenoxy)-3-chloro-3′-(3-(2-chlorophenyl)ureido)biphenyl-4-carboxylic acid] |
| 90 | 310 | Cc1ccc(NC(=O)Nc2cc(-c3cccc(F)c3C(=O)O)ccc2Oc2ccccc2C(C)(C)C)cc1 [Example 171, 4′-(2-tert-butylphenoxy)-3-fluoro-3′-(3-p-tolylureido)biphenyl-2-carboxylic acid] |
| 660 | 2340 | CC(C)(C)c1ccccc1Oc1ccc(-c2ccc(F)cc2C(=O)O)cc1NC(=O)Nc1ccccc1Cl [Example 169, 4′-(2-tert-butylphenoxy)-3′-(3-(2-chlorophenyl)ureido)-4-fluorobiphenyl-2-carboxylic acid] |
| 440 | 1250 | Cc1ccc(NC(=O)Nc2cc(-c3ccc(C(=O)O)c(Cl)c3)ccc2Oc2ccccc2C(C)(C)C)cc1 [Example 257, 4′-(2-tert-butylphenoxy)-3-chloro-3′-(3-p-tolylureido) biphenyl-4-carboxylic acid] |
| 440 | 10000 | Cc1ccccc1NC(=O)Nc1cc(-c2cc(Cl)cc(C(=O)O)c2)ccc1Oc1ccccc1C(C)(C)C [Example 238, 4′-(2-tert-butylphenoxy)-5-chloro-3′-(3-o-tolylureido) biphenyl-3-carboxylic acid] |
| 160 | 680 | Cc1ccc(NC(=O)Nc2cc(-c3ccccc3-c3nnn[nH]3)ccc2Oc2cccc3c2CCCC3)cc1 [Example 185, 1-(4-(5,6,7,8-tetrahydronaphthalen-1-yloxy)-2′-(1H-tetrazol-5-yl)biphenyl-3-yl)-3-p-tolylurea] |
| 170 | 450 | CC(C)(C)c1ccccc1Oc1ccc(-c2ccccc2-c2nnn[nH]2)cc1NC(=O)Nc1ccccc1F [Example 190, 1-(4-(2-tert-butylphenoxy)-2′-(1H-tetrazol-5-yl)biphenyl-3-yl)-3-(2-fluorophenyl)urea] |
| 1480 | 2580 | Cc1ccccc1NC(=O)Nc1cc(-c2cccc(F)c2C(=O)O)ccc1Oc1ccccc1C(C)(C)C [Example 175, 4′-(2-tert-butylphenoxy)-3-fluoro-3′-(3-o-tolylureido)biphenyl-2-carboxylic acid] |
| 360 | 1240 | O=C(Nc1ccc(Cl)cc1)Nc1cc(-c2ccccc2-c2nnn[nH]2)ccc1Oc1cccc2c1CCCC2 [Example 189, 1-(4-chlorophenyl)-3-(4-(5,6,7,8-tetrahydronaphthalen-1-yloxy)-2′-(1H-tetrazol-5-yl)biphenyl-3-yl)urea] |

Further lines, the compound ahead of its results:

| Structure (SMILES) | IC50 (IDO [1]) [nM] | IC50 (IDO [2]) [nM] |
| --- | --- | --- |
| COc1ccc(-c2ccc(Oc3cccc4ccccc34)c(NC(=O)Nc3cccc(C)c3)c2)cc1C(=O)O [Example 130, 4-methoxy-4′-(naphthalen-1-yloxy)-3′-(3-m-tolylureido)biphenyl-3-carboxylic acid] | 120 | 480 |
| COc1ccc(-c2ccc(Oc3ccccc3C3CC3)c(NC(=O)Nc3ccccc3Cl)c2)cc1C(=O)O [Example 124, 3′-(3-(2-chlorophenyl)ureido)-4′-(2-cyclopropylphenoxy)-4-methoxybiphenyl-3-carboxylic acid] | 140 | 820 |
| Cc1ccccc1NC(=O)Nc1cc(-c2ccc(Cl)cc2C(=O)O)ccc1Oc1ccccc1C(C)(C)C [Example 159, 4′-(2-tert-butylphenoxy)-4-chloro-3′-(3-o-tolylureido)biphenyl-2-carboxylic acid] | 870 | 3470 |
| COc1ccc(-c2ccc(Oc3ccccc3C(C)(C)C)c(NC(=O)Nc3ccc(C)cc3C)c2)cc1C(=O)O [Example 94, 4′-(2-(tert-butyl)phenoxy)-3′-(3-(2,4-dimethylphenyl)ureido)-4-methoxy-[1,1′-biphenyl]-3-carboxylic acid] | 170 | 3060 |
| COc1ccc(-c2ccc(Oc3ccc4c(c3)CCCC4)c(NC(=O)Nc3cccc(C)c3)c2)cc1C(=O)O [Example 147, 4-methoxy-4′-(5,6,7,8-tetrahydronaphthalen-2-yloxy)-3′-(3-m-tolylureido)biphenyl-3-carboxylic acid] | 460 | 1320 |
| COc1ccc(-c2ccc(Oc3c(C)cccc3C(C)(C)C)c(NC(=O)Nc3cccc(C)c3)c2)cc1C(=O)O [Example 60, 4′-(2-tert-butyl-6-methylphenoxy)-4-methoxy-3′-(3-m-tolylureido)biphenyl-3-carboxylic acid] | 310 | 1150 |
| COc1ccc(-c2ccc(Oc3ccccc3C3CC3)c(NC(=O)Nc3ccccc3C)c2)cc1C(=O)O [Example 125, 4′-(2-cyclopropylphenoxy)-4-methoxy-3′-(3-o-tolylureido)biphenyl-3-carboxylic acid] | 170 | 730 |
| COc1ccc(-c2ccc(Oc3cccc4c3OC(C)(C)C4)c(NC(=O)Nc3ccccc3C)c2)cc1C(=O)O [Example 139, 4′-(2,2-dimethyl-2,3-dihydrobenzofuran-7-yloxy)-4-methoxy-3′-(3-o-tolylureido)biphenyl-3-carboxylic acid] | 680 | 2640 |
| COc1ccc(-c2ccc(Oc3cccc4ccccc34)c(NC(=O)Nc3ccccc3Cl)c2)cc1C(=O)O [Example 128, 3′-(3-(2-chlorophenyl)ureido)-4-methoxy-4′-(naphthalen-1-yloxy)biphenyl-3-carboxylic acid] | 40 | 250 |
| CC(C)(C)c1ccccc1Oc1ccc(-c2ccc(Cl)cc2C(=O)O)cc1NC(=O)Nc1ccccc1Cl [Example 158, 4′-(2-tert-butylphenoxy)-4-chloro-3′-(3-(2-chlorophenyl)ureido)biphenyl-2-carboxylic acid] | 860 | 4060 |
| COc1ccc(-c2ccc(Oc3cccc(C(C)(C)C)c3)c(NC(=O)Nc3ccccc3C)c2)cc1C(=O)O [Example 111, 4′-(3-tert-butylphenoxy)-4-methoxy-3′-(3-o-tolylureido)biphenyl-3-carboxylic acid] | 180 | 430 |
| COc1ccc(-c2ccc(O[C@@H]3CCCC[C@H]3C)c(NC(=O)Nc3ccccc3Cl)c2)cc1C(=O)O (relative stereo) [Example 132, 3′-(3-(2-chlorophenyl)ureido)-4-methoxy-4′-((trans)-2-methylcyclohexyloxy)biphenyl-3-carboxylic acid] | 990 | 1460 |
| Cc1ccccc1NC(=O)Nc1cc(-c2cc(Cl)ccc2C(=O)O)ccc1Oc1ccccc1C(C)(C)C [Example 167, 4′-(2-tert-butylphenoxy)-5-chloro-3′-(3-o-tolylureido)biphenyl-2-carboxylic acid] | 1670 | 3810 |
| COc1ccccc1NC(=O)Nc1cc(-c2ccc(OC)c(C(=O)O)c2)ccc1Oc1ccccc1C(C)(C)C [Example 83, 4′-(2-(tert-butyl)phenoxy)-4-methoxy-3′-(3-(2-methoxyphenyl)ureido)-[1,1′-biphenyl]-3-carboxylic acid] | 210 | 1190 |
| COc1ccc(-c2ccc(Oc3cccc4c3OC(C)(C)C4)c(NC(=O)Nc3ccccc3Cl)c2)cc1C(=O)O [Example 133, 3′-(3-(2-chlorophenyl)ureido)-4′-(2,2-dimethyl-2,3-dihydrobenzofuran-7-yloxy)-4-methoxybiphenyl-3-carboxylic acid] | 590 | 1830 |
| COc1ccc(-c2ccc(Oc3ccccc3Cl)c(NC(=O)Nc3ccccc3Cl)c2)cc1C(=O)O [Example 49, 4′-(2-chlorophenoxy)-3′-(3-(2-chlorophenyl)ureido)-4-methoxybiphenyl-3-carboxylic acid] | 590 | 2630 |
| COc1ccc(-c2ccc(Oc3cccc4c3CCCC4=O)c(NC(=O)Nc3ccccc3Cl)c2)cc1C(=O)O [Example 149, 3′-(3-(2-chlorophenyl)ureido)-4-methoxy-4′-(5-oxo-5,6,7,8-tetrahydronaphthalen-1-yloxy)biphenyl-3-carboxylic acid] | 530 | 2050 |
| COc1ccc(-c2cnc(Oc3cccc4c3CCCC4)c(NC(=O)Nc3ccccc3Cl)c2C)cc1C(=O)O [Example 3, 5-(5-(3-(2-Chlorophenyl)ureido)-4-methyl-6-(5,6,7,8-tetrahydronaphthalen-1-yloxy)pyridin-3-yl)-2-methoxybenzoic acid] | 3380 | 4810 |
| CCCc1ccccc1Oc1ccc(-c2ccc(OC)c(C(=O)O)c2)cc1NC(=O)Nc1ccccc1C [Example 75, 4-methoxy-4′-(2-propylphenoxy)-3′-(3-o-tolylureido)biphenyl-3-carboxylic acid] | 370 | 550 |
| COc1ccc(-c2ccc(Oc3cccc4c3CCCC4=O)c(NC(=O)Nc3ccccc3C)c2)cc1C(=O)O [Example 150, 4-methoxy-4′-(5-oxo-5,6,7,8-tetrahydronaphthalen-1-yloxy)-3′-(3-o-tolylureido)biphenyl-3-carboxylic acid] | 710 | 7190 |
